Experimental data published in US5730876A, “Separation and purification of low molecular weight chitosan using multi-step membrane separation process” (You; Hyang-Ja, priority 1997, dated 1998).
Structures can show the parent of a compound that is named as a salt.

Assays:
[1] = Solubility in water of chitosan oligosaccharides (Table 1); type: physicochemical
[2] = CH3OH solubility of chitosan oligosaccharides (Table 1); type: physicochemical; conditions: methanol, organic solvent or mixture
[3] = in water, read-out: Solubility (% in water)
[4] = CH3OH, 20° C., read-out: CH3OH Solubility

## N[C@H]1[C@H](O[C@H]2[C@H](O)[C@@H](N)[C@H](O[C@H]3[C@H](O)[C@@H](N)[C@H](O[C@H]4[C@H](O)[C@@H](N)[C@H](O[C@H]5[C@H](O)[C@@H](N)C(O)O[C@@H]5CO)O[C@@H]4CO)O[C@@H]3CO)O[C@@H]2CO)O[C@H](CO)[C@@H](O)[C@@H]1O (stereo partly drawn) [Chitopentose HCl]
[1]; [3]
  solubility: 860 mg/mL
[2]; [4]
  solubility: 46 mg/mL

## N[C@H]1[C@H](O[C@H]2[C@H](O)[C@@H](N)[C@H](O[C@H]3[C@H](O)[C@@H](N)[C@H](O[C@H]4[C@H](O)[C@@H](N)C(O)O[C@@H]4CO)O[C@@H]3CO)O[C@@H]2CO)O[C@H](CO)[C@@H](O)[C@@H]1O (stereo partly drawn) [Chitotetrose HCl]
[1]; [3]
  solubility: 1580 mg/mL
[2]; [4]
  solubility: 450 mg/mL

## Cl.N[C@H]1C(O)O[C@H](CO)[C@@H](O)[C@@H]1O (stereo partly drawn) [D-Glucosamine HCl]
[1]; water
  solubility: 371 mg/mL
[2]
  solubility: 4 mg/mL

## N[C@H]1[C@H](O[C@H]2[C@H](O)[C@@H](N)[C@H](O[C@H]3[C@H](O)[C@@H](N)[C@H](O[C@H]4[C@H](O)[C@@H](N)[C@H](O[C@H]5[C@H](O)[C@@H](N)[C@H](O[C@H]6[C@H](O)[C@@H](N)C(O)O[C@@H]6CO)O[C@@H]5CO)O[C@@H]4CO)O[C@@H]3CO)O[C@@H]2CO)O[C@H](CO)[C@@H](O)[C@@H]1O (stereo partly drawn) [Chitohexose HCl]
[1]; [3]
  solubility: 680 mg/mL
[2]; [4]
  solubility: 17 mg/mL

## N[C@H]1[C@H](O[C@H]2[C@H](O)[C@@H](N)C(O)O[C@@H]2CO)O[C@H](CO)[C@@H](O)[C@@H]1O (stereo partly drawn) [Chitobiose HCl]
[1]; [3]
  solubility: 1900 mg/mL
[2]; [4]
  solubility: 54 mg/mL

## N[C@H]1[C@H](O[C@H]2[C@H](O)[C@@H](N)[C@H](O[C@H]3[C@H](O)[C@@H](N)C(O)O[C@@H]3CO)O[C@@H]2CO)O[C@H](CO)[C@@H](O)[C@@H]1O (stereo partly drawn) [Chitotriose HCl]
[1]; [3]
  solubility: 1770 mg/mL
[2]; [4]
  solubility: 370 mg/mL
